Reference: patent US5418238A, “17β-substituted 4-aza-5α-androstan-3-one derivatives” (Farmitalia Carlo Erba S.R.L., priority 1992, dated 1995)

Columns and labels:
5α-reductase [1] = target: T1, 5α-reductase (Homo sapiens, UniProt P31213); test: In vitro assay of 5α-reductase inhibition (particulate fraction from hyperplastic human prostates, [14C]testosterone); assay type: biochemical; conditions: human prostate particulate fraction, 1 μM [14C]testosterone, pH 5.5, 37° C., 30 min
T1 construct: particulate fraction from homogenates of hyperplastic human prostates as the enzyme source; from tissue; host or cells: hyperplastic human prostate, particulate fraction (140,000 x g pellet of homogenate)
T1 sequence (P31213 1-254): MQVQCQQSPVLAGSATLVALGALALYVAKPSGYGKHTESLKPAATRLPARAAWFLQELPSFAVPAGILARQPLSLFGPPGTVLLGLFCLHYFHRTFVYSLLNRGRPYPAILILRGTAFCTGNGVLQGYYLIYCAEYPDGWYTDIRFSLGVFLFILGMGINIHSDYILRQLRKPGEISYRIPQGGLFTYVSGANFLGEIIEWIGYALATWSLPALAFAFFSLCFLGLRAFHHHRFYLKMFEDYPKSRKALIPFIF
Procedure: Inhibition of 5α-reductase was evaluated using the particulate fraction from homogenates of hyperplastic human prostates as the enzyme source. The particulate fraction was prepared centrifuging prostate homogenate at 140,000 x g. The resulting pellet, washed several times, was resuspended in buffer and stored at -80° C. in aliquots containing ≈10 mg protein/ml.
The assay for 5α-reductase was done in a final volume of 0.5 ml, in 40 mM TRIS-HCl buffer pH 5.5, containing I mM dithiothreitol, 5 mM NADPH, 1 μM [^14 C]testosterone, an aliquot of the enzyme preparation and various concentrations of the inhibitors. After 30 min incubation at 37° C. the reaction was terminated by addition of 2 ml cold diethyl ether and the organic phase was separated, evaporated under N2 and resuspended in ethyl acetate. Testosterone metabolites in this extract were separated in TLC on silica gel F 254 plates (Merck), using chloroform, acetone and n-hexane (2:1:2) as developing solvent system. Radioactivity on the plate was scanned and analysed from quantitative plots printed by a TLC-analyzer (Berthold). The fractional 5α-reduction of testosterone was calculated by relating the ^14 C-radioactivity in the 5α-reduced metabolites (5α-dihydrotesterone, […]) regions to the total radioactivity in the testosterone and 5α-reduced metabolites regions.

5α-reductase [2] = test: In vivo inhibition of 5α-reductase (testosterone-induced prostate hypertrophy in castrated rats); parameters: species or system rat; conditions: castrated testosterone-implanted rats, once daily for 7 days, ventral prostate weight
Procedure: The standard test for the antiandrogenic effect in rats was used. Prepuberal 22-day-old male rats were castrated via scrotal incision under light ether anaesthesia. On the seventh day after orchiectomy, androgen replacement was performed via subcutaneous implantation of 1 cm-long Silastic® tube (Dow-Corning, model No. 602-265) filled with a mixture of 25% testosterone and 75% cholesterol. […] Twenty four hours after the last dose the rats were sacrificed and the ventral prostate was removed and weighed. Control animals (testosterone controls) received the vehicle (0.5 ml/kg of 0.5% Methocel/0.4% Tween 80). One group of castrated rats was not implanted with testosterone (castrated controls).
The mean percentage of inhibition of the T-induced hypertrophic response of the prostate was calculated according to the following formula: […]
where WTC, WCC and WI are the mean prostate weight of testosterone control, castrated control and inhibitor treated group, respectively.

SMILES | IC50 (5α-reductase [1]) [nM] | % Inhibition of prostate weight at 3 mg/kg/day p.o. (5α-reductase [2]) [%]
CC(NC(=O)[C@H]1CC[C@H]2[C@@H]3CC[C@H]4NC(=O)C=C[C@]4(C)[C@H]3CC[C@]12C)C(=O)C(F)(F)F (stereo partly drawn) [Compound 5, N-[1,1,1-trifluoro-2-oxobut-3-yl]3-oxo-4-aza-5α-androst-1-ene-17β-carboxamide] | 16 | 58
CC(C)C(NC(=O)[C@H]1CC[C@H]2[C@@H]3CC[C@H]4NC(=O)C=C[C@]4(C)[C@H]3CC[C@]12C)C(=O)C(F)(F)F (stereo partly drawn) [Compound 7, N-[1,1,1-trifluoro-4-methyl-2-oxopent-3-yl]3-oxo-4-aza-5α-androst-1-ene-17β-carboxamide] | 8 | –
CC(C)(NC(=O)[C@H]1CC[C@H]2[C@@H]3CC[C@H]4NC(=O)C=C[C@]4(C)[C@H]3CC[C@]12C)C(=O)C(F)(F)F [Compound 22, N-[1,1,1-trifluoro-3-methyl-2-oxobut-3-yl]3-oxo-4-aza-5α-androst-1-ene-17β-carboxamide] | 14 | 50
